Measurements reported in the supplement of paper PMC4862054.

Columns and labels:
Assay in all cases: normalised viability (% of control), CellTiter-Blue; higher = more viable cells (about 100 = DMSO control)
[1] = tested on: BT-474; settings: 100 nM; incubation time: 72 h
Description: (§1)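 DSRT, CellTiter-Blue viability, 72 h incubation. Signal is normalised to DMSO and benzethonium chloride controls. Value is the normalised response at dose 3.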

[2] = tested on: BT-549; settings: 100 nM; incubation time: 72 h
Description: as §1

[3] = tested on: CAL-120; settings: 100 nM; incubation time: 72 h
Description: as §1

[4] = tested on: CAL-148; settings: 10 nM; incubation time: 72 h
Description: as §1

[5] = tested on: CAL-51; settings: 10 nM; incubation time: 72 h
Description: as §1

[6] = tested on: CAL-85-1; settings: 10 nM; incubation time: 72 h
Description: as §1

[7] = tested on: DU-4475; settings: 10 nM; incubation time: 72 h
Description: as §1

[8] = tested on: HCC1143; settings: 100 nM; incubation time: 72 h
Description: as §1

[9] = tested on: HCC1599; settings: 100 nM; incubation time: 72 h
Description: as §1

[10] = tested on: HCC1937; settings: 100 nM; incubation time: 72 h
Description: as §1

[11] = tested on: HDQ-P1; settings: 10 nM; incubation time: 72 h
Description: as §1

[12] = tested on: MDA-MB-231; settings: 100 nM; incubation time: 72 h
Description: as §1

[13] = tested on: MDA-MB-436; settings: 100 nM; incubation time: 72 h
Description: as §1

[14] = tested on: MDA-MB-453; settings: 10 nM; incubation time: 72 h
Description: as §1

[15] = tested on: MDA-MB-468; settings: 100 nM; incubation time: 72 h
Description: as §1

[16] = tested on: SK-BR-3; settings: 100 nM; incubation time: 72 h
Description: as §1

[17] = tested on: BT-474; settings: incubation time: 72 h
Outline: (§2)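 Each value is normalised viability at a single listed concentration of the series. Breast cancer cell lines in 384-well plates were incubated 72 h with compound and read by CellTiter-Blue fluorescence at 560/590 nm, with vehicle set to 100 and a positive kill control to 0 on every plate.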

[18] = tested on: BT-549; settings: incubation time: 72 h
Outline: as §2

[19] = tested on: CAL-120; settings: incubation time: 72 h
Outline: as §2

[20] = tested on: CAL-51; settings: incubation time: 72 h
Outline: as §2

[21] = tested on: CAL-85-1; settings: incubation time: 72 h
Outline: as §2

[22] = tested on: DU-4475; settings: incubation time: 72 h
Outline: as §2

[23] = tested on: HCC1143; settings: incubation time: 72 h
Outline: as §2

[24] = tested on: HDQ-P1; settings: incubation time: 72 h
Outline: as §2

[25] = tested on: Hs578T; settings: incubation time: 72 h
Outline: as §2

[26] = tested on: MDA-MB-453; settings: incubation time: 72 h
Outline: as §2

[27] = tested on: MDA-MB-468; settings: incubation time: 72 h
Outline: as §2

[28] = tested on: MFM-223; settings: incubation time: 72 h
Outline: as §2

[29] = tested on: SK-BR-3; settings: incubation time: 72 h
Outline: as §2

Clc1ccc(C(c2ccccc2Cl)C(Cl)Cl)cc1 (stereo not given) [Mitotane]
Settings	normalised viability [%]
[1]	127
[2]	98.5
[3]	86.3
[4]	93.1
[5]	112
[6]	99.9
[7]	98.6
[8]	89.6
[9]	107
[10]	95.6
[11]	99.1
[12]	91.7
[13]	105
[14]	102
[15]	98.8
[16]	112

normalised viability [%]
Settings	3 nM	10 nM	30 nM	100 nM	1000 nM	10000 nM
[17]	–	118	–	–	108	130
[18]	–	83	–	–	93	102
[19]	–	80.8	–	–	87.8	86
[20]	117	–	106	107	–	–
[21]	92.6	–	86.2	101	–	–
[22]	109	–	87.5	93.9	–	–
[23]	–	82.9	–	–	81.2	91.4
[24]	117	–	102	100	–	–
[25]	–	96.6	–	–	86.7	107
[26]	117	–	94.6	103	–	–
[27]	–	108	–	–	102	102
[28]	–	90.3	–	–	96	87.9
[29]	–	105	–	–	104	82.3

COc1cccc2cc(-c3nc([C@H]4CC[C@H](C(=O)O)CC4)n4ncnc(N)c34)[nH]c12 [OSI-027]
Settings	normalised viability [%]
[1]	95.1
[2]	71.9
[3]	91.9
[4]	92.6
[5]	95.4
[6]	92.8
[7]	105
[8]	119
[9]	88.9
[10]	84
[11]	78.5
[12]	72.1
[13]	74.1
[14]	80.9
[15]	84.4
[16]	48.6

normalised viability [%]
Settings	3 nM	10 nM	30 nM	100 nM	1000 nM	10000 nM
[17]	–	106	–	–	54.2	25.9
[18]	–	98.9	–	–	76	16.1
[19]	–	101	–	–	66.4	12.5
[20]	97.3	–	93.8	84.6	–	–
[21]	95.4	–	83.2	100	–	–
[22]	96.6	–	92.5	82.5	–	–
[23]	–	101	–	–	72.9	35
[24]	78.3	–	80.4	76.8	–	–
[25]	–	99.4	–	–	59.1	23.6
[26]	79	–	88.2	71.6	–	–
[27]	–	87.8	–	–	66.4	22
[28]	–	101	–	–	34.9	16
[29]	–	93.7	–	–	19	13.1

OC[C@H]1O[C@@H](n2cnc3c2N=CNC[C@H]3O)C[C@@H]1O [Pentostatin]
Settings	normalised viability [%]
[1]	109
[2]	80.9
[3]	103
[4]	111
[5]	88.4
[6]	103
[7]	109
[8]	112
[9]	97.6
[10]	106
[11]	106
[12]	94.9
[13]	99.1
[14]	104
[15]	107
[16]	97.6

normalised viability [%]
Settings	3 nM	10 nM	30 nM	100 nM	1000 nM	10000 nM
[17]	–	116	–	–	119	111
[18]	–	100	–	–	98.1	85.3
[19]	–	115	–	–	103	94.4
[20]	90.1	–	85.4	84.2	–	–
[21]	106	–	96.2	104	–	–
[22]	93.4	–	92.7	95	–	–
[23]	–	114	–	–	103	102
[24]	118	–	99	100	–	–
[25]	–	111	–	–	101	105
[26]	105	–	97.7	94.8	–	–
[27]	–	115	–	–	99.4	104
[28]	–	93.5	–	–	93	98.1
[29]	–	108	–	–	104	116

N#CC[C@H](C1CCCC1)n1cc(-c2ncnc3[nH]ccc23)cn1 [Ruxolitinib]
Settings	normalised viability [%]
[1]	107
[2]	74.5
[3]	97.5
[4]	102
[5]	84.9
[6]	96.4
[7]	101
[8]	107
[9]	99.3
[10]	81.1
[11]	74.4
[12]	90.8
[13]	94.5
[14]	93
[15]	100
[16]	85.1

normalised viability [%]
Settings	3 nM	10 nM	30 nM	100 nM	1000 nM	10000 nM
[17]	–	108	–	–	103	119
[18]	–	86.3	–	–	90.9	73.4
[19]	–	102	–	–	99	94.5
[20]	84.6	–	97	97.4	–	–
[21]	114	–	90.4	110	–	–
[22]	103	–	106	121	–	–
[23]	–	107	–	–	107	98.2
[24]	84	–	83.6	104	–	–
[25]	–	108	–	–	104	93.5
[26]	86.8	–	89.2	93.9	–	–
[27]	–	90.5	–	–	104	100
[28]	–	101	–	–	98.6	75.3
[29]	–	95.4	–	–	87.3	103
